This is an account of results in article PMC6105845, “Nucleotide Prodrug Containing a Nonproteinogenic Amino Acid To Improve Oral Delivery of a Hepatitis C Virus Treatment” (Antimicrobial Agents and Chemotherapy, 2018).

Values joined by “and” are separate entries in the source; they are usually repeats but may differ in a detail not shown here. Equal values may be shown once. Read-outs that look alike come from different tables or passages of the source.

One series concerns HCV GT1a replicon. Nature of the series: HCV GT1a replicon, transiently transfected Huh-1C cells. Type of series: cell-based, hepatitis C virus. Particulars: for EC50: Hepatitis C virus, GT1A, 72 h. How it is done: (§1) GT1a, GT1b, and GT2a are authentic subgenomic replicons of the indicated strain. Creation of these HCV replicons was reported previously ([7]).
(§2) RNA was transcribed in vitro using a MEGAscript […] kit (Ambion, Austin, TX) and transfected into Huh-Lunet and −1C cells using published methods ([21], [22]).
(§3) The EC50s, defined as the concentration at which there was a measured 50% decrease in HCV replicon level, were determined in replicon assay as previously described ([24]). Briefly, replicon cells were seeded into 96-well plates. Compounds were serially diluted in DMSO at 200× final concentrations and then added to the assay plate. Luciferase expression was quantified after 3 days of incubation using a commercial luciferase assay (Promega, Madison, WI). Data were analyzed using GraphPad Prism 6.0 (La Jolla, CA).
(§4) X represents log of compound concentration and Y represents replicon replication as the percentage of DMSO control. EC50s were calculated as an average from at least three independent experiments.

Series [1] has as its system HCV GT2a replicon. In words: HCV GT2a replicon, transiently transfected Huh-1C cells. Type of series: cell-based, hepatitis C virus. Conditions: for EC50: Hepatitis C virus, GT2A, 72 h. As for the experimental part:
as §1, §2, §3, §4
In general terms: In antiviral work, replicon cells carry a viral genome segment that copies itself.

In a further series the test system is HCV GT1b replicon. Nature of the series: HCV GT1b replicon, stably transfected Huh-Lunet cells. The class given is cell-based, hepatitis C virus. Conditions: for EC50: Hepatitis C virus, 72 h, stably transfected Huh-Lunet cells, 3 days. As for the experimental part:
(§5) Primary hepatocytes from humans, hamsters, dogs, and monkeys were purchased from BioreclamationIVT in 12-well plates seeded at confluence (0.88 × 10^6 cells/well). Huh-Lunet cells were obtained from ReBlikon GmbH (Mainz, Germany) ([19]). Huh-1C was derived from a GT1a replicon clone in which HCV replication was cured. All Huh-Lunet- and Huh-1C-based replicon cell lines were cultured in Dulbecco's modified Eagles' medium (DMEM) with GlutaMAX (Invitrogen, Carlsbad, CA) supplemented with 10% fetal bovine serum (FBS; HyClone, Logan, UT) and 100 U/ml penicillin (Invitrogen). Replicon cell lines containing genotype 1a (H77) and 2a (JFH1) were created as previously reported ([20][–][22]). Caco-2 cells were maintained in DMEM with sodium pyruvate, GlutaMAX supplemented with 1% penicillin-streptomycin, 1% nonessential amino acids, and 10% FBS in an incubator set at 37°C, 90% humidity, and 5% CO2.
as §1, §3, §4

Series [2] concerns HCV GT2a replicon. Nature of the series: HCV GT2a replicon, stably transfected Huh-Lunet cells. Type of series: cell-based, hepatitis C virus. Conditions: for EC50: Hepatitis C virus, 72 h, stably transfected Huh-Lunet cells, 3 days. As for the experimental part:
as §5, §1, §3, §4

Series [3] can be described thus: Metabolic stability in intestinal S9 fraction, dog. Type of series: in vitro ADME. As for the experimental part: (§6) Blood plasma and S9 stability was studied as described previously ([8]). In brief, the compounds were incubated at 2 μM in hamster, rat, dog, monkey, or human plasma samples for up to 4 h at 37°C. For S9 stability, the compounds were incubated at 2 μM in hamster, rat, dog, monkey, or human intestinal and hepatic S9 fractions for up to 90 min at 37°C in the presence of NADPH and uridine 5′-diphosphoglucuronic acid trisodium salt (UDPGA) (Sigma-Adrich). The samples were analyzed by liquid chromatography coupled to triple-quadrupole mass spectrometry (LC-MS/MS).
(§7) The data (analyte-to-internal standard peak area ratio) were plotted on a semilog scale and fitted using an exponential fit. The half-life (t1/2) was determined assuming first-order kinetics.

Series [4] in a line: Metabolic stability in hepatic S9 fraction, monkey. The class given is in vitro ADME. Conditions: monkey (cynomolgus); 2 μM. As for the experimental part: as §6, §7
The nature of series [5]: Plasma pharmacokinetics in pentagastrin-pretreated portal vein-cannulated dogs. Type of series: in vivo, male beagle dogs. Particulars: for bioavailability / AUC(0-t) / Cmax: male, beagle; for bioavailability / Fa (fraction absorbed): oral 5 mg/kg vs 0.5 mg/kg intravenous infusion; for bioavailability: read-out: F (oral bioavailability). How it is done: Plasma and liver pharmacokinetic studies were completed as described previously ([8]). Briefly, intact Golden Syrian hamsters, Sprague-Dawley rats, and beagle dogs (intact and portal vein cannulated) were orally administered a single dose of GS2 or GS2(R+S) in solution formulations at between 5 and 50 mg/kg of body weight. Similarly, studies were completed by administering GS-6620 or its 1:1 diastereomeric mixture in solution or micronized suspension formulations at between 5 and 21.1 mg/kg. Animal doses were chosen to correspond to surface area-adjusted human doses targeted for clinical development (150 to 500 mg). In order to understand hepatic extraction (EH), fraction absorbed (Fa), and oral bioavailability (F), intravenous (i.v.) and oral (p.o.) studies were conducted with GS2 and GS-6620 in intact and portal vein-cannulated dogs. Intravenous dosing used solution formulations at 0.5 mg/kg of the respective prodrugs. Animals were housed and handled in accordance with the Guide for the Care and Use of Laboratory Animals ([23]). The protocols were reviewed and approved by the Institutional Animal Care and Use Committees (IACUC).
Plasma samples were prepared through protein precipitation extraction by adding acetonitrile to a final concentration of 70% containing internal standard (5-iodotubericidin). Samples were dried completely under a stream of nitrogen at 40°C and reconstituted with 0.2% formic acid in water to 3 times the original volume of plasma for LC-MS/MS analysis. Liver samples were prepared by sectioning into smaller pieces and collecting into preweighed 15-ml conical tubes kept on dry ice. Ice-cold extraction buffer (0.1% KOH and 67 mM EDTA in 70% methanol containing chloro-ATP as an internal standard) was added to ∼0.5 g of each liver sample. The mixtures were promptly homogenized using an Omni-Tip TH with disposable, hard tissue homogenizer probes (Omni International). Aliquots of the homogenate were filtered by using 0.2-μm 96-well polypropylene filter plates (Varian Captiva). The filtrates were evaporated to dryness and reconstituted with an equal volume of 1 mM ammonium phosphate buffer (pH 7) prior to LC-MS/MS analysis. Plasma and liver samples were analyzed on a Sciex API-4000 (Applied Biosystems, Foster City, CA) LC-MS/MS instrument. Analytes in plasma samples were separated on a 4-μm, 150- by 2-mm Synergi Max-RP column (Phenomenex, Torrance, CA) using a mobile phase containing 0.2% formic acid and a linear gradient from 2% to 100% acetonitrile at a flow rate of 250 μl/min over 7 min. Analytes in liver samples were separated using a 50- by 2-mm by 2.5-μm Luna C18(2) HST column (Phenomenex, Torrance, CA). A multistage linear gradient from 10% (mobile phase A) to 50% acetonitrile (mobile phase B) in a mobile phase containing 3 mM ammonium formate (pH 5.0) with 10 mM dimethylhexylamine at a flow rate of 0.15 ml/min was used to elute the analytes.
Noncompartmental pharmacokinetic parameters were calculated using WinNonlin 5.01 (Pharsight Corporation, Mountain View, CA). Equations for calculating hepatic extraction (EH; equation 2), fraction absorbed (Fa; equation 3), and oral bioavailability (F; equation 4) have been presented previously ([25]). (2) EH=AUCPO,portal vein−AUCPO,jugular vein/AUCPO,portal vein (3) Fa=F/1−EH (4) F=AUCPO,jugular vein÷DosePO/AUCIV÷DoseIV

Setting [6] is: dog, plasma (jugular vein), oral 5 mg/kg, GS2 in solution, GS-6620 in suspension of micronized material, read-out: AUC0–t jugular.
Where [7] appears, read: dog, plasma (jugular vein), oral 5 mg/kg, GS2 in solution, GS-6620 in suspension of micronized material, read-out: Cmax jugular.
Setting [8] is: dog, plasma (portal vein), oral 5 mg/kg, GS2 in solution, GS-6620 in suspension of micronized material, read-out: AUC0–t portal.
Setting [9] is: dog, plasma (portal vein), oral 5 mg/kg, GS2 in solution, GS-6620 in suspension of micronized material, read-out: Cmax portal.
Setting [10] is: dog, plasma, 0.5-mg/kg intravenous infusion (30 min), n = 3, read-out: AUC0–t following intravenous infusion.

With `CC(C)OC(=O)C(C)(C)N[P@](=O)(OC[C@H]1O[C@@](C#N)(c2ccc3c(N)ncnn23)[C@](C)(O)[C@@H]1O)Oc1ccccc1` [GS2], the “Fold (GS2/GS-6620)” value with HCV GT1a replicon (EC50 ratio, GT1a, Huh-1C) was found to be 3.5; in the series with HCV GT2a replicon [1] (EC50 ratio, GT2a, Huh-1C), 2.3; in the series on HCV GT1b replicon (EC50 ratio, Huh-Lunet) it was 7.2; with HCV GT2a replicon [2] (EC50 ratio, GT2a, Huh-Lunet) it was 50. Further, the EC50 – broadly, the concentration giving half of the maximal effect – in the series on HCV GT1a replicon worked out at 140 ± 60 nM; in the series with HCV GT2a replicon [1], 61 ± 8 nM; in the series with HCV GT1b replicon, 2200 nM; in the series on HCV GT2a replicon [2] (GT2a), 25000 nM. In series [3], the half-life – broadly, the time needed for the level to fall by half in the phase considered – at 2 μM came out at 9.17 h. Besides, the “Metabolic stability in hepatic S9 fraction, predicted hepatic extraction” value in series [4] is 91%. Also, in series [5] (dog, in vivo), the “Fa in dog higher than corresponding L-alanine-containing prodrug” value is recorded as “more than 5 fold”. Besides, in series [5] (dog, plasma (jugular vein)), the bioavailability (in general, dose-corrected exposure relative to a reference, in per cent) is 13%. Moreover, the AUC(0-t) is 0.44 ± 0.09 µM·h in series [5] (setting [6]), 1.77 ± 0.26 µM·h in series [5] (setting [8]) and 0.34 µM·h in series [5] (setting [10]). The Cmax (usually the highest concentration seen after dosing) came to 430 ± 90 nM in series [5] (setting [7]) and 1610 ± 350 nM in series [5] (setting [9]). The “EH (hepatic extraction)” value in series [5] (oral 5 mg/kg) worked out at 75%. The “maximal portal concentration lower than GS-6620” value in series [5] (oral 5 mg/kg) is recorded as “approximately 2 fold”. In addition, the “Fa (fraction absorbed)” value in series [5] was 51.6% and 52%.

As to `CC(C)OC(=O)[C@H](C)N[P@](=O)(OC[C@H]1O[C@@](C#N)(c2ccc3c(N)ncnn23)[C@](C)(O)[C@@H]1OC(=O)C(C)C)Oc1ccccc1` [GS-6620, reference compound], the EC50 in the series on HCV GT1a replicon was determined as 41 ± 19 nM; with HCV GT2a replicon [1] it was 27 ± 10 nM; in the series on HCV GT1b replicon, 300 ± 140 nM; in the series with HCV GT2a replicon [2] (GT2a), 500 ± 160 nM. In addition, the “difference in activity across the 2a replicons” value with HCV GT2a replicon [2] (Huh-Lunet vs Huh-1C 2a replicons) is not above 19 fold. In addition, the half-life at 2 μM in series [3] amounted to 0.55 h. Besides, the “Metabolic stability in hepatic S9 fraction, predicted hepatic extraction” value in series [4] is on record as 95%. The bioavailability in series [5] (dog, plasma (jugular vein)) is 15%. The AUC(0-t) in series [5] (setting [6]) worked out at 0.33 ± 0.28 µM·h; in series [5] (setting [8]) it was 1.68 ± 0.8 µM·h; in series [5] (setting [10]) it was 0.2 µM·h. Moreover, the Cmax in series [5] (setting [7]) is 620 ± 430 nM; in series [5] (setting [9]), 3650 ± 860 nM. Also, the “EH (hepatic extraction)” value in series [5] (oral 5 mg/kg) is 80%. Further, in series [5], the “Fa (fraction absorbed)” value turned out to be 79%. Further, in series [5] (oral 5 mg/kg, postdose), the “time by which plasma concentration decreased to undetectable” value is reported as not above 2 h.
